Laboratory results: patent publication US20240024291A1, “Uses of Dihydroorotate Dehydrogenase Inhibitors” (University of Maryland, Baltimore, priority 2022, published 2024)

Legend:
[1] = tested on: EGFRviii expressing 08-387 and 913 glioblastoma cells; test: Gemcitabine sensitization assay (Alamar blue); assay type: cell-based, human; conditions: varying dosages of gemcitabine and 100 nM of compound 1
Protocol: Ten thousand 08-387 or 913 glioblastoma cells per well were seeded in a 96 well plate. […] Post 72 hr of treatment, cell viability was calculated on Alamar blue absorbance reading.
To further evaluate the potential role of EGFR in compound 1 resistance, the 913 and 08-387 neurosphere lines were transduced with lentiviruses encoding EGFRvIll or GFP (as control) and these neurospheres were challenged with a relatively high dose of 1 mM compound 1.

[2] = tested on: 08-387 orthotopic xenografts; test: Orthotopic glioblastoma xenograft, drug treatment; assay type: in vivo
Protocol: (§1) Experiments with animals were performed in compliance with institutional guidelines and regulations. Four- to six-week-old male and female NCG mice (NOD-Prkdcem26Cd52112rgem26Cd22/NjuCrl, Charles River Laboratory, Wilmington, MA) were used in all experiments in approximately equal numbers of each sex in each experimental group. The 08-387 m-Cherry Luciferase or 913 Luciferase expressing cells (1×10 5) were stereotactically injected into the right striatum as previously described (30). Two weeks after the injection of the cells, tumor growth was monitored with bioluminescence imaging using an IVIS Spectrum imaging system equipped with the Living Image software package (Perkin Elmer). Male and female mice harboring orthotopic xenografts with Radiance (p/sec/cm2/sr) equal to or greater than 1x10 6 were randomly assigned to the control or compound 1 treatment groups. Mice were dosed daily by oral gavage with either vehicle (90/10 Kollisolv® PEG400/EtOH solution) or 3 mg/kg compound 1. Animal weight was monitored daily, and mice were sacrificed when they became symptomatic.
(§2) To generate equivalent treatment groups and facilitate the tracking of xenograft growth, these cells were transduced with a mCherry:Luciferase reporter. An equal number of male and female immunodeficient mice were injected, and overall survival was the primary endpoint. Mice were imaged weekly starting two weeks after the injection and then randomized to the two treatment groups when tumor Radiance surpassed 1x10 6 photons/sec/cm^2/sr (sr=units of solid angle or steradian). Compound 1 (3 mg/kg) or vehicle were delivered daily by oral gavage.

[3] = tested on: 913 orthotopic xenografts; test: Orthotopic glioblastoma xenograft, drug treatment; assay type: in vivo
Protocol: as §1, §2

[4] = tested on: 3691 glioblastoma neurosphere line; test: CellTiter-Glo in vitro proliferation assay; assay type: cell-based; conditions: Homo sapiens, 72 h, 3691 (table prints 3639)
Protocol: (§3) A Biospherix X3, hypoxic incubation system, was maintained at 37° C., 1% 02, 5% CO2, and 94% N2 (Biospherix, Ltd—Parish, NY) to conduct in vitro hypoxic experiments. Cells were plated, then incubated in normoxia overnight before transferring the culture dishes to hypoxia for the duration indicated in the main text.
(§4) Glioblastoma neurosphere lines were plated in 96-well plates at 25,000 cells per well in […] of media and treated with compound 1 in the presence or absence of 100 μM uridine. Cell Titer-Glo® Luminescent Cell Viability Assay (Promega, Madison, WI, USA) was performed 72 hours after treatment. Luminescence was determined using a Cytation 5 reader and Gen5 software package (BioTek, Winooski, VT, USA).
(§5) The compound's efficacy was examined against a collection of genetically diverse patient-derived GSC lines in vitro. The IC50 profiles of compound 1 in the seven GSC lines tested were established using the CellTiter-Glo® reagent and calculated with GraphPad software.

[5] = tested on: Mayo6 glioblastoma neurosphere line; test: CellTiter-Glo in vitro proliferation assay; assay type: cell-based; conditions: Homo sapiens
Protocol: as §3, §4, §5

[6] = tested on: 913 glioblastoma neurosphere line; test: gH2AX foci immunofluorescence (DNA damage); assay type: cell-based, human; conditions: IC50 dose
Protocol: (§6) The 913, 3691, 08-387, and 1079 glioblastoma neurosphere-derived cells (1×10^4) were treated with DMSO (control) or IC50 concentration of compound 1 and cultured in either normoxia or hypoxia for 48 hours. Cells were spun with a Milles Scientific Cyto-Tek Model 4325 cytocentrifuge slide centrifuge onto Superfrost slides (VWR-48311-703) at 1500 rpm for 5 minutes. Slides were rinsed briefly with Hanks Balanced Salt Solution (HBSS), fixed in 4% paraformaldehyde in PBS, and rinsed with HBSS twice to remove any residual fixative. Cells were permeabilized with PBS containing 0.1% Triton-X100 (PBST) for 15 minutes, then blocked for 1 hour with PBST with 5% BSA. The slides were incubated overnight at 4° C. with Phospho-H2AX antibody (see above), diluted 1:250 in PBST containing 5% BSA. Slides were rinsed three times with HBSS, then incubated for one hour at room temperature with donkey anti-mouse, Alexa488-conjugated, secondary antibody diluted 1:500 in PBST containing 5% BSA (see above). Cell nuclei were counterstained with DAPI (150 nM), and the slides were cover-slipped with Prolong antifade mounting media (Molecular Probes #P36961). Using a 40X objective, at least ten random high-power fields, per condition, were captured with a Nikon W-1 Spinning Disk confocal microscope through the University of Maryland Baltimore CIBR confocal facility. The number of yH2AX-positive foci per cell was counted using ImageJ (unige.ch/medecine/bioimaging/files/3714/1208/5964/CellCounting.pdf). Individual cells with ten or more foci were considered positive for significant DNA damage. At least 300 cells were analyzed in each sample.
(§7) Reduced de novo pyrimidine synthesis mediated by MCT4-depletion promoted an accumulation of DNA damage (29). To test and quantify the magnitude of compound 1 effect on DNA damage, the four compound 1 responsive GBM neurosphere lines 913, 3691, 08-387, and 1079 were cultured in normoxia (21% oxygen) and hypoxia (1% oxygen) with a model-specific IC50 dose of compound 1 for 48 hours followed by immunocytochemical analysis of the DNA-damage marker g-H2AX. Table 1 is a summary of IC50 (nM or mM) values established for the seven glioblastoma neurosphere lines

[7] = tested on: 3691 glioblastoma neurosphere line; test: gH2AX foci immunofluorescence (DNA damage); assay type: cell-based, human; conditions: IC50 dose
Protocol: as §6, §7

[8] = tested on: 08-387 glioblastoma neurosphere line; test: gH2AX foci immunofluorescence (DNA damage); assay type: cell-based, human; conditions: IC50 dose
Protocol: as §6, §7

[9] = tested on: 1079 glioblastoma neurosphere line; test: gH2AX foci immunofluorescence (DNA damage); assay type: cell-based, human; conditions: IC50 dose
Protocol: as §6, §7

CCn1c(CO)nn(-c2cc(O[C@@H](C)C(F)(F)F)c(C(=O)Nc3c(F)cccc3Cl)cc2F)c1=O [Compound 1, N-(2-chloro-6-fluorophenyl)-4-[4-ethyl-4,5-dihydro-3-(hydroxymethyl)-5-oxo-1H-1,2,4-triazol-1-yl]-5-fluoro-2-[(1S)-2,2,2-trifluoro-1-methylethoxy]-benzamide]
sensitization to gemcitabine [1]: sensitizes | tumor radiance compared to controls ([2]; 08-387, week 1, 3 mg/kg daily oral): roughly the same | tumor radiance lower compared to controls ([2]; 08-387, week 2, 3 mg/kg daily oral): 47% | tumor radiance lower compared to controls ([2]; 08-387, week 3, 3 mg/kg daily oral): 75% | body weight / tolerability ([2]; 08-387 xenograft mice, 3 mg/kg daily oral gavage): no significant weight loss | median survival from initiation of treatment ([2]; 08-387 xenografts, 3 mg/kg daily oral (vehicle 12 days)): 19 days | increase in median survival ([2]; 08-387 xenografts, vs vehicle): 58% | tumor radiance lower than in vehicle controls ([3]; 913, week 1, 3 mg/kg daily oral): 6.5% | tumor radiance lower than in vehicle controls ([3]; 913, week 2, 3 mg/kg daily oral): 41% | tumor radiance lower than in vehicle controls ([3]; 913, week 3, 3 mg/kg daily oral): 52% | body weight / tolerability ([3]; 913 xenograft mice, 3 mg/kg daily oral gavage): no significant weight loss | median survival from initiation of treatment ([3]; 913 xenografts, 3 mg/kg daily oral (vehicle 32 days)): 41 days | increase in median survival ([3]; 913 xenografts, vs vehicle): 28% | IC50 ([4]; hypoxia): 0.0122 µM | IC50 ([4]; normoxia): 0.0074 µM | IC50 ([5]; 72 h, Mayo6, hypoxia): 228 µM | IC50 ([5]; 72 h, Mayo6, normoxia): 164 µM | IC50 ([5]; Mayo6): 164 µM | nuclei with multiple gH2AX-positive foci ([6]; 913, hypoxia, 48 hours (control 2.3%)): 23% | nuclei with multiple gH2AX-positive foci ([6]; 913, normoxia, 48 hours (control 11%)): 89% | g-H2AX positivity ([7]; 3691, hypoxia, 48 hours (control 11.3%)): 44.2% | g-H2AX positivity ([7]; 3691, normoxia, 48 hours (control 9%)): 46% | nuclei with multiple gH2AX-positive foci ([8]; 08-387, hypoxia, 48 hours (control 13.6%)): 32% | nuclei with multiple gH2AX-positive foci ([8]; 08-387, normoxia, 48 hours (control 11.6%)): 30% | g-H2AX positivity ([9]; 1079, hypoxia, 48 hours (control 16.2%)): 38.4% | g-H2AX positivity ([9]; 1079, normoxia, 48 hours (control 14.8%)): 32.4%
